Source: patent US20220119856A1, “STALL SIDE METHOD FOR THE DETECTION OF BACTERIA IN DAIRY CATTLE” (TRANSFORMATIVE TECHNOLOGIES, priority 2019, published 2022)

Key:
S. aureus = assay: Rupture of gram-positive bacteria by lytic enzyme, read by bioluminescence of released ATP; format: cell-based; conditions: 0.05% enzyme, PBS buffer, mastitic milk or healthy milk
Text: As the goal of this invention is to target and detect only gram positive organisms active in mastitis such as: S. aureus, Coagulase negative staphylococci (CoNS) and S. uberi, it is important to identify lytic enzymes that can effectively rupture the cell walls of these pathogens in the presence of raw Bovine milk. […] The action against specific gram-positive organisms of these enzymes has been verified in PBS buffered solutions, but their ability to rupture bacteria had to be verified to in raw milk. The first candidates tested in for their activity in Bovine milk were Lysostaphin (Lyso) which attacks S. aureus, and Streptococcal phage lytic enzyme (PlyC) which attacks Streptococcus uberis. In all reactions, a concentration a of 0.05% of the phage lytic enzyme was used to evaluate the time required to rupture the cell wall of gram-positive bacteria in raw Bovine milk, as well as in a Phosphate-buffered saline (PBS) solution. It was determined that that in one hour, PlyC can eradicate up to 6 logs of S. uberis in PBS buffer, and either mastitic milk or healthy milk. The degree of lysing was determined by bioluminescence produced by the ATP released from the ruptured cells as described earlier. We then lowered the bacterial load to 2 logs of S. uberis in PBS buffer, and either mastitic milk or healthy milk, and it was determined that the PlyC can eradicate this bacterial load in 3 minutes or less. Similar experiments were performed with Lysostaphin (Lyso), which attacks S. aureus, and we determined we that can eradicate up to 6 logs of S. aureus in PBS buffer, and either mastitic milk or healthy milk in under 25 minutes. We then lowered the bacterial load to 2 logs of S. aureus in PBS buffer and either mastitic milk or healthy milk, and it was determined that the Lyso can eradicate this bacterial load in 2 minutes or less.

[1] = Elimination of endogenous ATP in raw Bovine milk, luciferin-luciferase readout; format: biochemical
Experimental: All assays were performed using 50 uL of raw Bovine milk and 50 uL of Promega luciferin-luciferase reagent (containing 25 mM HEPES buffer (pH 7.5), 40 pg luciferase, 100 pM luciferin, and 10mM MgSO4). Bioluminescent measurements were determined using the Hygiena Ensure System. The test was performed in both 100% and 50% raw Bovine milk. […] At a concentration of 284 mUnits the apyrase is able to deplete the endogenous ATP in 50 μL of raw milk in less than 30 seconds. The diminution of ATP was so fast with higher concentrations of Apyrase (diluting the enzyme) resulting in the inability to take meaningful reading, since all of the ATP was gone within 10 seconds. There are numerous commercially available ATP-degrading enzymes that can be tested for this purpose, but in our system, the Apyrase enzyme appears more than sufficient.

[2] = Sigma Chemical A6535, vendor specification; cited from earlier work
Apyrase = biological target: T1, Apyrase (Solanum tuberosum, UniProt P80595); assay: Inactivation of excess Apyrase in raw Bovine milk by surfactants, signal after ATP standard added; format: biochemical; conditions: 50 ul raw Bovine milk pretreated with 284 mU Apyrase
T1 construct: purchased Sigma Chemical A6535
T1 sequence (P80595 1-454): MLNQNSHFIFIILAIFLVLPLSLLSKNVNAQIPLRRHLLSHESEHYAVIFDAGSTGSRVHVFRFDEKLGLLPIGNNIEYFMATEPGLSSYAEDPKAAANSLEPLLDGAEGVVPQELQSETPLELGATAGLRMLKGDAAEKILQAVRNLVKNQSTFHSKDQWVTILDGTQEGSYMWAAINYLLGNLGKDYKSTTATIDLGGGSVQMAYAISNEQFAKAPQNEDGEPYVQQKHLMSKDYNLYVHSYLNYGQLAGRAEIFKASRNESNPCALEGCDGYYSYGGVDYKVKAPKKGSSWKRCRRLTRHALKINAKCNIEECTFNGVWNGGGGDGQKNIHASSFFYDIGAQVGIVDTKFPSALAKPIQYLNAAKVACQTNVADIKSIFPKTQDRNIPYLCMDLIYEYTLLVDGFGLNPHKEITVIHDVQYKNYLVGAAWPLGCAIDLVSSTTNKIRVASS
Experimental: It is important to eliminate any excess Apyrase that may remain in the raw Bovine milk sample after treatment with the Apyrase enzyme that was used to eliminate endogenous ATP in Example #4. […] Among the reagents evaluated were: dimethyldioctadecylammonium chloride, laureltrimethylammonium bromide (DTAB), benzyldimethyldodecylammonium bromide (BDDABr), and cetyl trimethylammonium bromide (CTAB). The experiment was performed by adding between 0.02% and 1% of the selected surfactant to 50 ul of raw Bovine milk that had treated previously been treated with 284 mU of Apyrase as detailed in example #4. The levels of ATP were confirmed by adding 50 uL of Promega luciferin-luciferase reagent (containing 25 mM HEPES buffer (pH 7.5), 40 pg luciferase, 100 pM luciferin, and 10 mM MgSO4). As expected the readings determined on the Hygiena Ensure Luminometer were too low to measure, since all of the ATP had already been eliminated by Apyrase treatment in Example #4. After the initially readings were determined as described above, 10 uL of a 10^−8M solution of ATP standard (Sigma Chemical) was added to the samples above and the bioluminescent signal was determined on a Hygiena Ensure Luminometer. As expected a signal was now detected, since all of the excess Apyrase added earlier had been eliminated by the surfactants being evaluated. The best results were seen when the detergents benzyldimethyldodecylammonium bromide (BDDABr) at 0.05% concentration and, laureltrimethylammonium bromide (DTAB) at 0.5% and 1.0% concentrations were added to the samples.

[3] = system: somatic cells present in raw Bovine milk; assay: Rupture of somatic cells in raw Bovine milk, ATP released; format: cell-based; conditions: in under 90 seconds; raw Bovine milk with predetermined somatic cell counts
Experimental: A number of surfactants (detergents) were evaluated for their ability to rupture the somatic cells present in raw Bovine milk samples. Among the reagents tested were Triton X100 (Sigma Chemical) and Neonol AF9-10 (Nonoxynol-9) (Elarum Petrochemicals). Determinations using both surfactants were performed on raw Bovine milk samples in which somatic cell counts were predetermined. […] The number of somatic cell ruptured was determined by quantifying the ATP released in 50 uL samples of treated raw Bovine milk (as a function of time) using 50 uL of Promega luciferin-luciferase reagent (containing 25 mM HEPES buffer (pH 7.5), 40 pg luciferase, 100 pM luciferin, and 10 mM MgSO4). Bioluminescent measurements were performed using a Hygiena Ensure luminometer and all readings were blank corrected.

Lysostaphin: Lysostaphin (Lyso) which attacks S. aureus
time to eradicate bacterial load of 2 logs of S. aureus (S. aureus): ≤ 2 minutes | time to eradicate up to 6 logs of S. aureus (S. aureus): under 25 minutes | bacterial load of S. aureus eradicated (S. aureus; in under 25 minutes): up to 6 logs

Apyrase
elimination of endogenous ATP (in words) ([1]; 100% and 50% raw Bovine milk): works well | time to deplete the endogenous ATP ([1]; 284 mUnits apyrase, 50 μL of raw milk): less than 30 seconds | time until all of the ATP was gone ([1]; higher concentrations of Apyrase): ≤ 10 s | ATPase activity of the enzyme preparation [2]: ≥ 200 units/mg protein

CCCCCCCCCCCC[N+](C)(C)Cc1ccccc1.[Br-] [BDDABr, benzyldimethyldodecylammonium bromide]
inactivation of Apyrase (in words) (Apyrase; 0.05% surfactant): best results

CCCCCCCCCCCC[N+](C)(C)C.[Br-] [DTAB, laureltrimethylammonium bromide]
inactivation of Apyrase (in words) (Apyrase; 0.5% surfactant): best results | inactivation of Apyrase (in words) (Apyrase; 1.0% surfactant): best results

Nonoxynol-9 [Neonol-9-10]
ability to rupture somatic cells (in words) [3]: superior to the Triton X100
